# Test results published in patent publication US9115116B2, “Dual action inhibitors against histone deacetylases and 3-hydroxy-3-methylglutaryl coenzyme a reductase” (Academia Sinica, priority 2013, dated 2015).
# Where two headings read alike, the source gives them in different places.
# What was measured:
# [1] = biological target: HMGR (Homo sapiens (Human), UniProt P04035); test: HMG-CoA reductase (HMGR) activity assay, recombinant protein; format: biochemical; conditions: for IC50: mean ± SD of three experiments
# From the text: HMG-CoA Reductase (HMGR) Activity Assay.
# [2] = tested on: acetylation of histone H3 in A549 lung cancer cells; test: Western blot analysis of histone acetylation in A549 cells; format: cell-based, human; conditions: SAHA at 5 μM
# Protocol: (§1) After treated with test compounds (i.e., compounds of example 1), cells were lysed on ice, and cell lysates were collected and subjected to SDS-PAGE. Immunoblotting was performed using specific antibodies to evaluate the expression of proteins.
# (§2) The intracellular histone acetylation status is a direct indicator for class I HDAC inhibition, whereas α-tubulin is the substrate of class II HDAC (i.e., HDAC 6).
# [3] = biological target: HMGR activity in A549 lung cancer cells (Homo sapiens (Human), UniProt P04035); test: HMGR activity in whole cell lysates of treated A549 lung cancer cells; conditions: 1-50 μM, 24 h
# Protocol: A549 cells were cultured in Dulbecco's modified Eagle's medium (DMEM) in a humidified incubator containing 5% CO2/95% air.
# The HMGR activity was performed using HMG-CoA reductase assay kit from Sigma-Aldrich with the human recombinant protein or 100 μg total cell lysates from A549 cells. […] HMGR activity under defined assay conditions, containing NADPH and HMG-CoA substrate in a final volume of 0.2 mL of 100 mM potassium phosphatate buffer (120 mM KCI, 1 mM EDTA, 5 mM DTT, pH 7.4), were initiated in the presence or absence (control) of test compounds dissolved in dimethylsulfoxide (DMSO). The rates of NADPH consumption were monitored every 20 seconds, for up to 10 minutes, by spectrophotometer at 37° C. and 340 nm. The HMGR activity was calculated as a percentage of activity compared with the control group at 5 min. The IC50 values were calculated from software SigmaPlot.
# [4] = tested on: acetylation of α-tubulin in A549 cells; test: Western blot analysis of tubulin acetylation in A549 cells; format: cell-based, human; conditions: SAHA at 5 μM
# Protocol: as §1, §2
# [5] = biological target: HDAC2 (Homo sapiens (Human), UniProt Q92769); test: HDAC fluorescent activity assay (HDAC2); format: biochemical
# [6] = biological target: HDAC1 (Homo sapiens (Human), UniProt Q13547); test: HDAC fluorescent activity assay (HDAC1); format: biochemical
# Protocol: (§3) The HDAC activity was performed using the HDAC fluorescent activity assay kit (BIOMOL, Plymouth Meeting, Pa., USA) according to the manufacturer's instructions. Briefly, recombinant proteins of HDAC1 or HDAC6 were incubated with test compounds, and HDAC reaction was initiated by addition of Fluor-de-Lys substrate. Samples were incubated for 10 min at room temperature, followed by adding developer to stop the reaction. Fluorescence was measured by fluorometric reader with excitation at 360 nm and emission at 460 nm. The HDAC activity was expressed as arbitrary fluorescence units (AFU). […] The half maximal inhibitory concentration (IC50) values for the test compounds were calculated from software SigmaPlot.
# [7] = biological target: HDAC6 (Homo sapiens (Human), UniProt Q9UBN7); test: HDAC fluorescent activity assay (HDAC6); format: biochemical; conditions: mean ± SD of three experiments
# Protocol: as §3
# HMGR, sequence (P04035 426-888 limits assumed): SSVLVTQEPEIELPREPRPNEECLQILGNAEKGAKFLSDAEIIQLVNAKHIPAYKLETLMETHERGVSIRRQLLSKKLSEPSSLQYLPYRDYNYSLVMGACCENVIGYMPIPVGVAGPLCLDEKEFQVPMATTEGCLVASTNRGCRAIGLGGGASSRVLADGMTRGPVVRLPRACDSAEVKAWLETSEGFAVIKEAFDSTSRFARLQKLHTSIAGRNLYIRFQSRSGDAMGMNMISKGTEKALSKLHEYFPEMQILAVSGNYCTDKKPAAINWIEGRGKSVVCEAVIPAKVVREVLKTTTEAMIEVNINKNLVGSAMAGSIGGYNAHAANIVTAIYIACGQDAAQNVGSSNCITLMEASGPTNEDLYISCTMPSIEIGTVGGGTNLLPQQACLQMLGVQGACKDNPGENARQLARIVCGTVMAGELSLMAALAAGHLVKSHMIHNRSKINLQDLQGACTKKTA
# HDAC2, sequence (Q92769 whole entry, species assumed): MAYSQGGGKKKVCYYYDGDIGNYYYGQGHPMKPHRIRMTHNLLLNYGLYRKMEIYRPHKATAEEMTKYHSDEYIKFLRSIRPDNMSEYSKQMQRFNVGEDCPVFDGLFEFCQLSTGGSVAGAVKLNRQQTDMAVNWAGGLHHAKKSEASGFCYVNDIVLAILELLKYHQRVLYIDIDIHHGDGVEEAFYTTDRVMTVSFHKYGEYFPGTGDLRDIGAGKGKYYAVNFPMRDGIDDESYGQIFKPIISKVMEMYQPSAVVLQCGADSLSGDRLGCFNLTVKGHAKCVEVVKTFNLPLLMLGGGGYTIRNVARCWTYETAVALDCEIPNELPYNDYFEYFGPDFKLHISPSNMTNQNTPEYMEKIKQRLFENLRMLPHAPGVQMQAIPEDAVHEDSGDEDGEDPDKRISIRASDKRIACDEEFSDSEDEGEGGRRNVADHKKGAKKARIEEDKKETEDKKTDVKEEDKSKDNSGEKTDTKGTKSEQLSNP
# HDAC1, sequence (Q13547 whole entry, species assumed): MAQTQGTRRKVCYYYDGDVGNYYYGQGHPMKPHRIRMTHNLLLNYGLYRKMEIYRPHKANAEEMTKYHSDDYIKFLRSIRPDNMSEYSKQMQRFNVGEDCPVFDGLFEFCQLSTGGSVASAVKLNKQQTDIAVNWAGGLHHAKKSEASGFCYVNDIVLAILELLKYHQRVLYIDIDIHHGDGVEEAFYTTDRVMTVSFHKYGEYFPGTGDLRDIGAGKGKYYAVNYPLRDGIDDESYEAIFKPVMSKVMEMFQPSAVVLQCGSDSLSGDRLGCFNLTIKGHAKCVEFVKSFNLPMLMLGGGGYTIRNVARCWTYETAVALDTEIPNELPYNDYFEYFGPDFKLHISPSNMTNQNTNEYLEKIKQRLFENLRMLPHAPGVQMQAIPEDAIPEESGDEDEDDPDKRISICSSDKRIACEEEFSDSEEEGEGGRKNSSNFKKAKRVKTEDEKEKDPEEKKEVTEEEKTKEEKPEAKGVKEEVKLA
# HDAC6, sequence (Q9UBN7 whole entry, species assumed): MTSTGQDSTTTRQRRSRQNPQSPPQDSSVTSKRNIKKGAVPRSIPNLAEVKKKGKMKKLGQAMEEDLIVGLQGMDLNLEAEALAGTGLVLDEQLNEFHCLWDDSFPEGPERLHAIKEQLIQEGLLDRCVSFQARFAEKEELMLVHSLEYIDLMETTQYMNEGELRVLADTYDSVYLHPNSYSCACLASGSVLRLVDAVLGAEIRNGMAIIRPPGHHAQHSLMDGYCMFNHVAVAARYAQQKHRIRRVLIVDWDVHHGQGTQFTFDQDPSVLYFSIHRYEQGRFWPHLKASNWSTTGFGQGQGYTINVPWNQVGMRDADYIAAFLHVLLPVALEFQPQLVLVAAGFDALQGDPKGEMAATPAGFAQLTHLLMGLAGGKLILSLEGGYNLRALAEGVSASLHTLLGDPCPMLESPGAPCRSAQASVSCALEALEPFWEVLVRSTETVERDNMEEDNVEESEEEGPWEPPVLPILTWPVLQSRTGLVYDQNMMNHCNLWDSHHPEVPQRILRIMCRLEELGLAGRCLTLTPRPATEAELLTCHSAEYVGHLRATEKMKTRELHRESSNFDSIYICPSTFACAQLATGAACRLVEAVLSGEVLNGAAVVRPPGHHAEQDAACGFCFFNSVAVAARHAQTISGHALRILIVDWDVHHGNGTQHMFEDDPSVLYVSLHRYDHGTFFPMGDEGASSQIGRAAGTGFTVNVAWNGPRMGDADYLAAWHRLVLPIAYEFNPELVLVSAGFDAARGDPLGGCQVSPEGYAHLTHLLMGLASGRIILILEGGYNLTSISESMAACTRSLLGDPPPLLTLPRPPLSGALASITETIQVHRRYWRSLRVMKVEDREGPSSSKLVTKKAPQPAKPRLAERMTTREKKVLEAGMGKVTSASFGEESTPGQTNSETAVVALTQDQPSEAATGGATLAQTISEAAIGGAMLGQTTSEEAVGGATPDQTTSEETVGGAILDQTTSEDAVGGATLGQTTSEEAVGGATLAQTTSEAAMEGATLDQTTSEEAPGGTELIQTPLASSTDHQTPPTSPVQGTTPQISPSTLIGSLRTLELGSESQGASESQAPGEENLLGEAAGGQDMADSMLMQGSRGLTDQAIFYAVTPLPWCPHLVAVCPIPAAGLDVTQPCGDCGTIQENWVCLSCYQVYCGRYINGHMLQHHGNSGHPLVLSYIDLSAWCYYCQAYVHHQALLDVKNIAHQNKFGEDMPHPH
# HMGR activity in A549 lung cancer cells, sequence (P04035 whole entry): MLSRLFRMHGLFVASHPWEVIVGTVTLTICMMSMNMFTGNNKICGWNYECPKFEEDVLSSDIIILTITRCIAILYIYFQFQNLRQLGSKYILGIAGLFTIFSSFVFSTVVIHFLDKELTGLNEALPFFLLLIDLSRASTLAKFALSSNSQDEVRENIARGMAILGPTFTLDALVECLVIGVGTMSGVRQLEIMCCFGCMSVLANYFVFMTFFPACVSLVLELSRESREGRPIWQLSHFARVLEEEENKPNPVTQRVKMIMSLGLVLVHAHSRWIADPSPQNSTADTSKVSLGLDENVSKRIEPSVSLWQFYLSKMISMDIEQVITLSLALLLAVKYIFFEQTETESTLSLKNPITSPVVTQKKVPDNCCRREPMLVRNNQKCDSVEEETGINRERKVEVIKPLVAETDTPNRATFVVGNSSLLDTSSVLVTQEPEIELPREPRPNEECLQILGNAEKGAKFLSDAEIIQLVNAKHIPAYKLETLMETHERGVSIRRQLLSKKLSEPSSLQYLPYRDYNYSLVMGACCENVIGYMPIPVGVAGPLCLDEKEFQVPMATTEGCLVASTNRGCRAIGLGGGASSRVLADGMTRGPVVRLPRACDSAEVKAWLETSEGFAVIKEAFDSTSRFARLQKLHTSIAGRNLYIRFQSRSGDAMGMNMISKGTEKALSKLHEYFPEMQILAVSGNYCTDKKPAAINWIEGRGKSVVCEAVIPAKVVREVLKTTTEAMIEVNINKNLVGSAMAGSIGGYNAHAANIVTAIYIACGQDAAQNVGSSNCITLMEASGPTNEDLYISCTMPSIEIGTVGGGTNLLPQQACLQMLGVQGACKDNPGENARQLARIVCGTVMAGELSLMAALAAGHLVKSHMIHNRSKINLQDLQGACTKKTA
reduction of HMGR activity in whole cell lysates (in words) [3],Structure (SMILES),"inhibition of HMGR activity (in words) ([1]; enzyme assay, any dose)",histone acetylation (Western blot) [2],tubulin acetylation (Western blot) [4],IC50 [5] [nM],IC50 [1] [nM],IC50 [6] [nM],IC50 [7] [nM],IC50 ([5]; mean ± SD of three experiments) [nM],IC50 ([6]; mean ± SD of three experiments) [nM]
failed to inhibit HMGR at any dose,"O=C(CCCCCCC(=O)Nc1ccccc1)NO [SAHA, suberanilohydroxamic acid, reference compound]",no inhibition on HMGR activity at any dose,markedly induced,markedly induced,,,,,,
,"C#Cc1ccc(NC(=O)O[C@H]2C[C@@H](C)C=C3C=C[C@H](C)[C@H](CC[C@@H]4C[C@@H](O[Si](C)(C)C(C)(C)C)CC(=O)O4)[C@H]32)cc1 [6a, (4R,6R)-6-(2-{(1 S,2S,6R,8S,8aR)-8-[(4-ethynylphenyl)carbamoyloxy]-2,6-dimethyl-1,2,6,7,8,8a-hexahydronaphthyl}ethyl)-4-tert-butyldimethylsilyloxy-3,4,5,6-tetrahydro-2H-pyran-2-one]",,,,463 ± 28,36.5 ± 5.3,159 ± 8.4,127 ± 21.5,,
,"C#Cc1ccc(CNC(=O)O[C@H]2C[C@@H](C)C=C3C=C[C@H](C)[C@H](CC[C@@H]4C[C@@H](O[Si](C)(C)C(C)(C)C)CC(=O)O4)[C@H]32)cc1 [6b, (4R,6R)-6-(2-{(1S,2S,6R,8S,8aR)-8-[(4-Ethynylbenzyl)carbamoyloxy]-2,6-dimethyl-1,2,6,7,8,8a-hexahydronaphthyl}ethyl)-4-tert-butyldimethylsilyloxy-3,4,5,6-tetrahydro-2H-pyran-2-one]",,,,,53.8 ± 5.2,,34 ± 4.3,882 ± 9.7,125 ± 6.3
,"C[C@H]1C=C2C=C[C@H](C)[C@H](CC[C@@H]3C[C@@H](O[Si](C)(C)C(C)(C)C)CC(=O)O3)[C@H]2[C@@H](OC(=O)NCCCCCCC(=O)NO)C1 [12a, (4R,6R)-6-[2-((1S,2S,6R,8S,8aR)-8-{[7-(Hydroxyamino)-7-oxoheptyl]carbamoyloxy}-2,6-dimethyl-1,2,6,7,8,8a-hexahydronaphthyl)ethyl]-4-tert-butyldimethylsilyloxy-3,4,5,6-tetrahydro-2H-pyran-2-one]",,,,,,,140 ± 5.7,658 ± 21.1,122 ± 12.7
,"CC[C@H](C)C(=O)O[C@H]1C[C@@H](C)C=C2C=C[C@H](C)[C@H](CC[C@@H]3C[C@@H](O)CC(=O)O3)[C@H]21 [lovastatin, reference compound]",,no effect,no effect,,,,,,
,"C[C@H]1C=C2C=C[C@H](C)[C@H](CC[C@@H]3C[C@@H](O[Si](C)(C)C(C)(C)C)CC(=O)O3)[C@H]2[C@@H](OC(=O)Nc2ccc(-c3cn(CCCCCCC(=O)NO)nn3)cc2)C1 [8a, (4R,6R)-6-(2-{(1S,2S,6R,8S,8aR)-8-[(4-{1-[7-(Hydroxyamino)-7-oxoheptyl]-1H-1,2,3-triazol-4-yl}phenyl)carbamoyloxy]-2,6-dimethyl-1,2,6,7,8,8a-hexahydronaphthyl}ethyl)-4-tert-butyldimethylsilyloxy-3,4,5,6-tetrahydro-2H-pyran-2-one]",,promoted histone and tubulin acetylation in a dose dependent manner,promoted histone and tubulin acetylation in a dose dependent manner,463 ± 28,,159 ± 8.4,127 ± 21.5,,
,"C[C@H]1C=C2C=C[C@H](C)[C@H](CC[C@@H]3C[C@@H](O[Si](C)(C)C(C)(C)C)CC(=O)O3)[C@H]2[C@@H](OC(=O)NCc2ccc(-c3cn(CCCCCCC(=O)NO)nn3)cc2)C1 [8b, (4R,6R)-6-(2-{(1S,2S,6R,8S,8aR)-8-[(4-{1-[7-(Hydroxyamino)-7-oxoheptyl]-1H-1,2,3-triazol-4-yl}benzyl)carbamoyloxy]-2,6-dimethyl-1,2,6,7,8,8a-hexahydronaphthyl}ethyl)-4-tert-butyldimethylsilyloxy-3,4,5,6-tetrahydro-2H-pyran-2-one]",,promoted histone and tubulin acetylation in a dose dependent manner,promoted histone and tubulin acetylation in a dose dependent manner,882 ± 9.7,,125 ± 6.3,34 ± 4.3,,
